Data published in patent US8791132B2, “Compounds and methods for treatment of hypertension” (Medivation Technologies, Inc., priority 2011, dated 2014).

Legend:
[1] = target: T1, human recombinant adrenergic α2A receptor (Homo sapiens, UniProt P08913); test: Radioligand binding, adrenergic α2A ([3H]MK-912); conditions: for Percentage inhibition of ligand binding, Adrenergic α2A / inhibition at 0.1 µM: 0.1 μM compound; for Percentage inhibition of ligand binding, Adrenergic α2A / Percentage inhibition of ligand binding, Adrenergic α2A (0.1 μM): 0.1 µM; for inhibition at 0.1 µM: read-out: Percentage inhibition of ligand binding, Adrenergic α2A; for Percentage inhibition of ligand binding, Adrenergic α2A (0.1 μM): compound at 0.1 μM, [3H]MK-912, repeat datapoints each shown
T1 construct: expressed in transfected cells; host or cells: insect Sf9 cells
T1 sequence (P08913 1-465): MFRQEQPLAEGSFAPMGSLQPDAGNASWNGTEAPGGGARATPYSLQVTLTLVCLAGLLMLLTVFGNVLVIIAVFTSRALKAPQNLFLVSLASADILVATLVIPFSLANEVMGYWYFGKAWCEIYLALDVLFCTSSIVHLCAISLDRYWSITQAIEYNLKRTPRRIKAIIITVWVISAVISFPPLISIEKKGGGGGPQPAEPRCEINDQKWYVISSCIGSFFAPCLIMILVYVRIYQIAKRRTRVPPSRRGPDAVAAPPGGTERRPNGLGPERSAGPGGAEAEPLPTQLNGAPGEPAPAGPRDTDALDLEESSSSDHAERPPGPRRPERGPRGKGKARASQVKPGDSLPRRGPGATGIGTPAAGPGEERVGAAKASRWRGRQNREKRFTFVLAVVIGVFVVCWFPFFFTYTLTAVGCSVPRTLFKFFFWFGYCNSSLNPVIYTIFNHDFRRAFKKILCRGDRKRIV
Outline: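 Displacement of 1 nM [3H]MK-912 from receptor produced in insect Sf9 cells was measured after 60 min at 25 °C. Readout: percent inhibition of specific binding.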

[2] = target: T2, human recombinant adrenergic α2B receptor (Homo sapiens, UniProt P18089); test: Radioligand binding, adrenergic α2B ([3H]Rauwolscine); conditions: for Percentage inhibition of ligand binding, Adrenergic α2B / inhibition at 0.03 µM: 0.03 μM compound; for Percentage inhibition of ligand binding, Adrenergic α2B / Percentage inhibition of ligand binding, Adrenergic α2B (0.03 μM): 0.03 µM; for Percentage inhibition of ligand binding, Adrenergic α2B (0.03 μM): compound at 0.03 μM, [3H]Rauwolscine, repeat datapoints each shown
T2 construct: expressed in transfected cells; host or cells: CHO-K1
T2 sequence (P18089 1-450): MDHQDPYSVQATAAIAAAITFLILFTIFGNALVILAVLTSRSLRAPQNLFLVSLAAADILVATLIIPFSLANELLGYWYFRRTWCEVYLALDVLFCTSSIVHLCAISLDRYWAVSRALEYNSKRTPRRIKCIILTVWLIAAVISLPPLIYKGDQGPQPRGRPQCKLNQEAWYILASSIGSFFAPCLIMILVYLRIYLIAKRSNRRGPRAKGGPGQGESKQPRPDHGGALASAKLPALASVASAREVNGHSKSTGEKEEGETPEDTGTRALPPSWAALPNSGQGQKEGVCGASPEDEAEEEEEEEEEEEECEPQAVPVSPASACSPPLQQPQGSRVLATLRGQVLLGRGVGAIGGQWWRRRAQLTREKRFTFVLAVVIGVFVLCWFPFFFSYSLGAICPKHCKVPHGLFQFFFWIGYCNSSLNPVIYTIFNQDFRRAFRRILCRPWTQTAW
Outline: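 Assay used CHO-K1-expressed human α2B receptor in Tris-HCl pH 7.4 buffer with MgCl2, EDTA and BSA; 60 min incubation at 25 °C.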

[3] = target: T3, rat adrenergic α1B receptor (Rattus norvegicus, UniProt P15823); test: Radioligand binding, adrenergic α1B ([3H]Prazosin); conditions: for Percentage inhibition of ligand binding, Adrenergic α1B (0.1 μM): compound at 0.1 μM, [3H]Prazosin, repeat datapoints each shown
T3 construct: rat adrenergic α1B receptor obtained from Wistar Rat liver; from tissue; host or cells: Wistar rat liver
T3 sequence (P15823 1-515): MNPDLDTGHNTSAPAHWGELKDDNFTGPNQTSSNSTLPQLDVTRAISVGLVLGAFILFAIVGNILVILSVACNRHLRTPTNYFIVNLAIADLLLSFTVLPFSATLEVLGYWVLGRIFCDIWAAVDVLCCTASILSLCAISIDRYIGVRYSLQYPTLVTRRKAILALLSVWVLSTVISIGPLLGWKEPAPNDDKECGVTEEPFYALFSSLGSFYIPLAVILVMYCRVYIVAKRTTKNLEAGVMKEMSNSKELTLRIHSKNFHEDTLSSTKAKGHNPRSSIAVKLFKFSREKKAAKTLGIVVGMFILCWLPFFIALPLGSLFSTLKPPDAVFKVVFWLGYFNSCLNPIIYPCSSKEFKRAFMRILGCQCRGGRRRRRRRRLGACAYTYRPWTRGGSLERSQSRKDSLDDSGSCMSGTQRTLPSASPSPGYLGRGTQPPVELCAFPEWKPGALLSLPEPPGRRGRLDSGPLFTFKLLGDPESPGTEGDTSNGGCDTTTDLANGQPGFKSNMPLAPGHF
Outline: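 Rat α1B receptor from Wistar rat liver was incubated with 0.25 nM [3H]prazosin for 60 min at 25 °C in 50 mM Tris-HCl, pH 7.4, 0.5 mM EDTA. Non-specific binding was defined with 10 μM phentolamine. Bound radioligand was measured by filtration and counting, reported as percent inhibition of specific binding.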

[4] = read-out: Percentage inhibition of ligand binding, Adrenergic α2B

SMILES | Percentage inhibition of ligand binding, Adrenergic α2A [1] [%] | Percentage inhibition of ligand binding, Adrenergic α2B [2] [%] | Percentage inhibition of ligand binding, Adrenergic α1B ([3]; 0.1 μM compound, 0.1 µM) [%] | also measured
CNC(Cn1c2c(c3cc(C)ccc31)CN(C)CC2)c1ccc(F)cc1 (single isomer, unassigned) [II-12b, 2-(2,8-dimethyl-3,4-dihydro-1H-pyrido[4,3-b]indol-5(2H)-yl)-1-(4-fluorophenyl)-N-methyl ethanamine] | 15 | 65 | 11 | –
Cc1ccc2c(c1)c1c(n2CC(c2ccc(F)cc2)N(C)C)CCN(C)C1 (single isomer, unassigned) [II-14a, 2-(2,8-dimethyl-3,4-dihydro-1H-pyrido[4,3-b]indol-5(2H)-yl)-1-(4-fluorophenyl)-N,N-dimethylethanamine] | – | 88 | 30 | inhibition at 0.1 µM [1]: 34%
Cc1ccc2c(c1)c1c(n2CC(c2ccc(F)cc2)N(C)C)CCN(C)C1 (single isomer, unassigned) [II-14b, 2-(2,8-dimethyl-3,4-dihydro-1H-pyrido[4,3-b]indol-5(2H)-yl)-1-(4-fluorophenyl)-N,N-dimethylethanamine] | 17 | 33 | 8 | –
CC(=O)OC(C)(Cn1c2c(c3cc(C)ccc31)CN(C)CC2)c1cccnc1 (single isomer, unassigned) [II-15a, acetic acid 2-(2,8-dimethyl-1,2,3,4-tetrahydro-pyrido[4,3-b]indol-5-yl)-1-methyl-1-pyridin-3-yl-ethyl ester] | 7 | – | 61 | inhibition at 0.03 µM [2, 4]: 47%
CC(=O)OC(C)(Cn1c2c(c3cc(C)ccc31)CN(C)CC2)c1cccnc1 (single isomer, unassigned) [II-15b, acetic acid 2-(2,8-dimethyl-1,2,3,4-tetrahydro-pyrido[4,3-b]indol-5-yl)-1-methyl-1-pyridin-3-yl-ethyl ester] | 18 | 40 | 5 | –
Cc1ccc2c(c1)c1c(n2CC(C)(OC(=O)C(C)(C)C)c2cccnc2)CCN(C)C1 (single isomer, unassigned) [II-16b, 2,2-dimethyl-propionic acid 2-(2,8-dimethyl-1,2,3,4-tetrahydro-pyrido[4,3-b]indol-5-yl)-1-methyl-1-pyridin-3-yl-ethyl ester] | – | 73 | 46 | inhibition at 0.1 µM [1]: 32%; inhibition at 0.03 µM [2, 4]: 65%; inhibition at 0.1 µM ([2]; 0.1 μM compound, read-out: Percentage inhibition of ligand binding, Adrenergic α2B): 88%; Ki ([2]; read-out: Ki α2B): 5.58 nM; inhibition at 0.03 µM ([3]; 0.03 μM compound, read-out: Percentage inhibition of ligand binding, Adrenergic α1B): 16%; inhibition at 0.1 µM ([3]; 0.1 μM compound, read-out: Percentage inhibition of ligand binding, Adrenergic α1B): 32%
Cc1ccc2c(c1)c1c(n2CC(O)c2ccccc2F)CN(C)CC1 (single isomer, unassigned) [II-49a, 2-(2,6-dimethyl-3,4-dihydro-1H-pyrido[3,4-b]indol-9(2H)-yl)-1-(2-fluorophenyl)ethanol] | – | – | 47 | inhibition at 0.1 µM [1]: 34%; inhibition at 0.03 µM [2, 4]: 43%
Cc1ccc2c(c1)c1c(n2CC(O)c2ccccc2F)CN(C)CC1 (single isomer, unassigned) [II-49b, 2-(2,6-dimethyl-3,4-dihydro-1H-pyrido[3,4-b]indol-9(2H)-yl)-1-(2-fluorophenyl)ethanol] | 18 | 50 | 69 | –
OCCN1CCc2c(c3cc(Cl)ccc3n2CC(O)c2cccnc2)C1 (single isomer, unassigned) [II-94b] | −5 | 24 | 7 | –
Cc1ccc2c(c1)c1c(n2C(C)C(O)c2ccccc2)CCN(C)C1 (single isomer, unassigned) [II-95a, 2-(2,8-dimethyl-1,2,3,4-tetrahydro-pyrido[4,3-b]indol-5-yl)1-phenyl-propan-1-ol] | 16 | 53 | 32 | –
Cc1ccc2c(c1)c1c(n2C(C)C(O)c2ccccc2)CCN(C)C1 (single isomer, unassigned) [II-95b, 2-(2,8-dimethyl-1,2,3,4-tetrahydro-pyrido[4,3-b]indol-5-yl)1-phenyl-propan-1-ol] | −1 | 12 | −1 | –
Cc1cnc2c(c1)c1c(n2CC(C)(O)c2cccnc2)CCN(C)C1 (single isomer, unassigned) [II-99a] | – | 49 | 12 | inhibition at 0.1 µM [1]: 24%
Cc1cnc2c(c1)c1c(n2CC(C)(O)c2cccnc2)CCN(C)C1 (single isomer, unassigned) [II-99b] | 16 | 7 | 5 | –
Cc1cnc2c(c1)c1c(n2CC(O)c2ccc(C)nc2)CCN(C)C1 (single isomer, unassigned) [II-100b] | 4 | 1 | – | Percentage inhibition of ligand binding, Adrenergic α1B ([3]; 0.1 μM compound): 24%
Cc1cnc2c(c1)c1c(n2CC(C)(O)c2ccc(C(F)(F)F)nc2)CCN(C)C1 (single isomer, unassigned) [II-108a] | – | – | – | Percentage inhibition of ligand binding, Adrenergic α2A (0.1 μM) [1]: −2%; Percentage inhibition of ligand binding, Adrenergic α2B (0.03 μM) [2]: 27%; Percentage inhibition of ligand binding, Adrenergic α1B (0.1 μM) ([3]; 0.1 µM): 13%
Cc1cnc2c(c1)c1c(n2CC(C)(O)c2ccc(C(F)(F)F)nc2)CCN(C)C1 (single isomer, unassigned) [II-108b] | – | – | – | Percentage inhibition of ligand binding, Adrenergic α2A (0.1 μM) [1]: −6%; Percentage inhibition of ligand binding, Adrenergic α2B (0.03 μM) [2]: 11%; Percentage inhibition of ligand binding, Adrenergic α1B (0.1 μM) ([3]; 0.1 µM): −2%
